From patent publication US20080026417A1, “ASSAYS FOR TRICHOMONAL AND OTHER HYDROLASES” (priority 2002, published 2008)
Peptide text beside a SMILES is read from it. * marks the point of attachment. βNA = c1ccc2cc(N*)ccc2c1; Cbz = O=C(OCc1ccccc1)*

Tests used:
trichomonal hydrolases [1] = assay: Experiment 12: hydrolysis of ZRRR-MNA by trichomonal hydrolases in four buffers; assay type: biochemical, Trichomonas vaginalis; details: for Score: substrate ZRRR-MNA, Fast Red RL, 0-9 scale
Method: Fifty μL of each buffer solution, at pH 2.0, 2.2, 2.4, or 2.6, was pipetted into separate wells of a microtiter plate. Twenty-five μL of 8 mM ZRRR-MNA and 25 μL of 10% trichomonal hydrolase solution were added to each well, and 20 μL were then removed from each well for measurement of final pH. Ten minutes after the mixtures were made, a Dacron swab was inserted into each well to absorb the liquid, then each swab was rubbed on a Fast Red RL film. The intensity of pink color that developed on each swab after five minutes was visually scored in 0.5 unit increments using the 0-9 color scale presented in Table 11.1 of the preceding example.

trichomonal hydrolases [2] = assay: Experiment 9: dipeptide inhibition of trichomonal hydrolases mixed with vaginal fluid supernatant; assay type: biochemical, Trichomonas vaginalis; design: key: 0: Yellow; 1: Peach; 2: Orange; 3: Light to medium pink; 4: Dark pink or red; 5: Fuchsia; 6: Purple; details: trichomonal hydrolase added, ZRR-MNA, 10 mM dipeptide in substrate solution
Method: (§1) For each specimen, the vaginal fluid was extracted from the swab by centrifugation, 2 μL of the vaginal fluid supernatant was removed from the microfuge tube, and the remainder of the fluid was mixed to resuspend the particulate matter. For each specimen, 2 μL of the thus reconstituted vaginal fluid was pipetted into each of four microwells, then 2 μL of one of the four substrate/dipeptide combinations was added to each well. The 2 μL of vaginal fluid supernatant from each specimen was mixed with 18 μL of trichomonal hydrolases, and 2 μL of this mixture was mixed with 2 μL of each of the substrate/dipeptide combinations in another set of four wells. After fifteen minutes, 2 μL of indicator solution was added to each well.

[3] = test system: non-trichomonal hydrolases present in whole vaginal fluid; assay: Experiment 9: dipeptide inhibition of hydrolases in whole vaginal fluid of uninfected women; assay type: biochemical, human; design: key: 0: Yellow; 1: Peach; 2: Orange; 3: Light to medium pink; 4: Dark pink or red; 5: Fuchsia; 6: Purple; details: ZRR-MNA, 10 mM dipeptide in substrate solution
Method: as §1

trichomonal hydrolases [4] = assay: Experiment 13: hydrolysis of peptide substrates by trichomonal hydrolases at low pH in vaginal fluid supernatant; assay type: biochemical, Trichomonas vaginalis; design: key: −: No red color produced; +: Clearly visible red color produced; ++: Moderately intense red color produced; +++: Very intense red color produced; details: Fast Garnet
Method: (§2) Forty μL of each substrate was pipetted into duplicate wells of a microtiter plate. The plate was covered with tape, placed into a 25° C. incubator, and allowed to warm. A diluted enzyme mixture was prepared by mixing one part (v/v) freshly-thawed trichomonal hydrolase solution to nine parts 2 mM L-cysteine solution. Forty μL of this mixture was added to one well of each pair of duplicate wells. For negative controls, 40 μL of 2 mM L-cysteine was added to the second well in each pair of duplicate wells. The plate was returned to the incubator and incubated for ten minutes. Forty μL of SDS/acetate solution was added to each well, followed by 40 μL of Fast Garnet solution. The intensity of color that developed in each well after five minutes was visually scored using the color scale presented in Table 13.1.
Of the nine substrates hydrolyzed by trichomonal hydrolases to produce an intense pink color (scoring ++ or +++) in the absence of vaginal fluid supernatant, only four produced intense pink color when vaginal fluid supernatant was present.

trichomonal hydrolases [5] = assay: Experiment 13: hydrolysis of peptide substrates by trichomonal hydrolases at low pH, no vaginal fluid; assay type: biochemical, Trichomonas vaginalis; design: key: −: No red color produced; +: Clearly visible red color produced; ++: Moderately intense red color produced; +++: Very intense red color produced; details: without vaginal fluid; threonine buffer pH 2.4; 2 mM substrate solution; 10 min 25° C.; Fast Garnet
Method: as §2

[6] = pH 2.0 Buffer after mixing with substrate and trichomonal hydrolase solution
[7] = pH 2.2 Buffer after mixing with substrate and trichomonal hydrolase solution
[8] = pH 2.4 Buffer after mixing with substrate and trichomonal hydrolase solution
[9] = pH 2.6 Buffer after mixing with substrate and trichomonal hydrolase solution
[10] = Donor A vaginal fluid supernatant
[11] = Donor B vaginal fluid supernatant
[12] = Donor C vaginal fluid supernatant
[13] = Donor D vaginal fluid supernatant

## O=C(O)CC(O)C(=O)O (racemic) [DL-malic acid]
Trichomonal hydrolases [1]; pH 2.0 Buffer (100 mM)
  Score: 4.5
Trichomonal hydrolases [1]; [6]
  Final pH: pH 2.4
Trichomonal hydrolases [1]; pH 2.2 Buffer (100 mM)
  Score: 5.5
Trichomonal hydrolases [1]; [7]
  Final pH: pH 2.7
Trichomonal hydrolases [1]; pH 2.4 Buffer (100 mM)
  Score: 6.0
Trichomonal hydrolases [1]; [8]
  Final pH: pH 2.8
Trichomonal hydrolases [1]; pH 2.6 Buffer (100 mM)
  Score: 6.0
Trichomonal hydrolases [1]; [9]
  Final pH: pH 2.9

## Lysine-valine
Trichomonal hydrolases [2]; [10]
  Hydrolase activity color score with dipeptide: 1
Trichomonal hydrolases [2]; [11]
  Hydrolase activity color score with dipeptide: 2
Trichomonal hydrolases [2]; [12]
  Hydrolase activity color score with dipeptide: 1
Trichomonal hydrolases [2]; [13]
  Hydrolase activity color score with dipeptide: 2
[3]; Donor A whole vaginal fluid
  Hydrolase activity color score with dipeptide: 1
[3]; Donor B whole vaginal fluid
  Hydrolase activity color score with dipeptide: 0
[3]; Donor C whole vaginal fluid
  Hydrolase activity color score with dipeptide: 0
[3]; Donor D whole vaginal fluid
  Hydrolase activity color score with dipeptide: 1.5

## C[C@@H](O)[C@H](N)C(=O)O [L-threonine]
Trichomonal hydrolases [1]; pH 2.0 Buffer (100 mM)
  Score: 3.5
Trichomonal hydrolases [1]; [6]
  Final pH: pH 2.3
Trichomonal hydrolases [1]; pH 2.2 Buffer (100 mM)
  Score: 6.0
Trichomonal hydrolases [1]; [7]
  Final pH: pH 2.4
Trichomonal hydrolases [1]; pH 2.4 Buffer (100 mM)
  Score: 6.5
Trichomonal hydrolases [1]; [8]
  Final pH: pH 2.7
Trichomonal hydrolases [1]; pH 2.6 Buffer (100 mM)
  Score: 6.0
Trichomonal hydrolases [1]; [9]
  Final pH: pH 2.9

## Lysine-lysine
Trichomonal hydrolases [2]; [10]
  Hydrolase activity color score with dipeptide: 1
Trichomonal hydrolases [2]; [11]
  Hydrolase activity color score with dipeptide: 2
Trichomonal hydrolases [2]; [12]
  Hydrolase activity color score with dipeptide: 1
Trichomonal hydrolases [2]; [13]
  Hydrolase activity color score with dipeptide: 2
[3]; Donor A whole vaginal fluid
  Hydrolase activity color score with dipeptide: 1
[3]; Donor B whole vaginal fluid
  Hydrolase activity color score with dipeptide: 0
[3]; Donor C whole vaginal fluid
  Hydrolase activity color score with dipeptide: 0
[3]; Donor D whole vaginal fluid
  Hydrolase activity color score with dipeptide: 2.5

## COc1cc(NC(=O)[C@H](CCCN=C(N)N)NC(=O)[C@H](CCCN=C(N)N)NC(=O)[C@H](C)NC(=O)OCc2ccccc2)cc2ccccc12 [CBZ-Ala-Arg-Arg-MNA]
Trichomonal hydrolases [4]
  Color Score: +
Trichomonal hydrolases [5]
  Color Score: ++

## COc1cc(NC(=O)[C@H](CCCNC(=N)N)NC(=O)[C@@H](NC(=O)[C@H](Cc2ccccc2)NC(=O)c2ccccc2)C(C)C)cc2ccccc12 [BZ-Phe-Val-Arg-MNA]
Trichomonal hydrolases [4]
  Color Score: +
Trichomonal hydrolases [5]
  Color Score: ++

## Lysine-proline
Trichomonal hydrolases [2]; [10]
  Hydrolase activity color score with dipeptide: 1
Trichomonal hydrolases [2]; [11]
  Hydrolase activity color score with dipeptide: 1
Trichomonal hydrolases [2]; [12]
  Hydrolase activity color score with dipeptide: 0.5
Trichomonal hydrolases [2]; [13]
  Hydrolase activity color score with dipeptide: 2
[3]; Donor A whole vaginal fluid
  Hydrolase activity color score with dipeptide: 0
[3]; Donor B whole vaginal fluid
  Hydrolase activity color score with dipeptide: 0
[3]; Donor C whole vaginal fluid
  Hydrolase activity color score with dipeptide: 0
[3]; Donor D whole vaginal fluid
  Hydrolase activity color score with dipeptide: 0

## COc1cc(NC(=O)[C@H](CCCNC(=N)N)NC(=O)[C@H](Cc2ccccc2)NC(=O)OCc2ccccc2)cc2ccccc12 [CBZ-Phe-Arg-MNA]
Trichomonal hydrolases [4]
  Color Score: +
Trichomonal hydrolases [5]
  Color Score: ++

## N[C@@H](Cc1c[nH]c2ccccc12)C(=O)Nc1ccc2ccccc2c1 [Trp-βNA]
Trichomonal hydrolases [5]
  Color Score: −

## NCCCC[C@H](N)C(=O)O [L-lysine]
Trichomonal hydrolases [1]; pH 2.0 Buffer (100 mM)
  Score: 3.0
Trichomonal hydrolases [1]; [6]
  Final pH: pH 2.3
Trichomonal hydrolases [1]; pH 2.2 Buffer (100 mM)
  Score: 4.5
Trichomonal hydrolases [1]; [7]
  Final pH: pH 2.5
Trichomonal hydrolases [1]; pH 2.4 Buffer (100 mM)
  Score: 5.0
Trichomonal hydrolases [1]; [8]
  Final pH: pH 2.9
Trichomonal hydrolases [1]; pH 2.6 Buffer (100 mM)
  Score: 5.5
Trichomonal hydrolases [1]; [9]
  Final pH: pH 3.0

## O=C(CNC(=O)OCc1ccccc1)NCC(=O)N[C@@H](Cc1ccccc1)C(=O)Nc1ccc2ccccc2c1 [CBZ-Gly-Gly-Phe-βNA] (Cbz-Gly-Gly-Phe-βNA)
Trichomonal hydrolases [5]
  Color Score: −

## NCCCC[C@H](N)C(=O)Nc1ccc2ccccc2c1 [Lys-βNA]
Trichomonal hydrolases [5]
  Color Score: −

## COc1cc(NC(=O)[C@H](CCCNC(=N)N)NC(=O)c2ccccc2)cc2ccccc12 [BZ-Arg-MNA]
Trichomonal hydrolases [5]
  Color Score: −

## NC(N)=NCCC[C@H](N)C(=O)Nc1ccc2ccccc2c1 [Arg-βNA]
Trichomonal hydrolases [5]
  Color Score: −

## COc1cc(NC(=O)[C@H](CCCN=C(N)N)NC(=O)[C@H](CC(C)C)NC(=O)OCc2ccccc2)cc2ccccc12 [ZLR, CBZ-Leu-Arg-MNA]
Trichomonal hydrolases [4]
  Color Score: +++
Trichomonal hydrolases [5]
  Color Score: +++

## N=C(N)NCCC[C@H](NC(=O)[C@@H](N)CCCNC(=N)N)C(=O)Nc1ccc2ccccc2c1 [Arg-Arg-βNA] (H-Arg-Arg-βNA)
Trichomonal hydrolases [5]
  Color Score: −

## CC(C)C[C@H](N)C(=O)Nc1ccc2ccccc2c1 [Leu-βNA]
Trichomonal hydrolases [5]
  Color Score: −

## COc1cc(NC(=O)[C@@H]2CCCN2C(=O)CN)cc2ccccc12 [Gly-Pro-MNA]
Trichomonal hydrolases [5]
  Color Score: −

## COc1cc(NC(=O)[C@@H](N)Cc2ccccc2)cc2ccccc12 [Phe-MNA]
Trichomonal hydrolases [5]
  Color Score: −

## CC(C)[C@H](N)C(=O)Nc1ccc2ccccc2c1 [Val-βNA]
Trichomonal hydrolases [5]
  Color Score: −

## COc1cc(NC(=O)C(CCCN=C(N)N)NC(=O)C2CCCN2)cc2ccccc12 (stereo not drawn) [Pro-Arg-MNA]
Trichomonal hydrolases [5]
  Color Score: −

## NCC(=O)N[C@@H](CCCN=C(N)N)C(=O)Nc1ccc2ccccc2c1 [Gly-Arg-βNA] (H-Gly-Arg-βNA)
Trichomonal hydrolases [5]
  Color Score: −

## NC(N)=NCCCC(NC(=O)c1ccccc1)C(=O)Nc1ccc2ccccc2c1 (racemic) [BZ-DL-Arg-βNA]
Trichomonal hydrolases [5]
  Color Score: −

## NCC(=O)O [Glycine]
Trichomonal hydrolases [1]; pH 2.0 Buffer (100 mM)
  Score: 5.0
Trichomonal hydrolases [1]; [6]
  Final pH: pH 2.4
Trichomonal hydrolases [1]; pH 2.2 Buffer (100 mM)
  Score: 6.0
Trichomonal hydrolases [1]; [7]
  Final pH: pH 2.6
Trichomonal hydrolases [1]; pH 2.4 Buffer (100 mM)
  Score: 6.0
Trichomonal hydrolases [1]; [8]
  Final pH: pH 2.7
Trichomonal hydrolases [1]; pH 2.6 Buffer (100 mM)
  Score: 6.0
Trichomonal hydrolases [1]; [9]
  Final pH: pH 2.9

## COc1cc(NC(=O)[C@H](CCCNC(=N)N)NC(=O)[C@H](CCCCN)NC(=O)[C@H](CCCCN)NC(=O)OCc2ccccc2)cc2ccccc12 [CBZ-Lys-Lys-Arg-MNA]
Trichomonal hydrolases [5]
  Color Score: +

## CC(C)C[C@H](NC(=O)CNC(=O)CNC(=O)OCc1ccccc1)C(=O)Nc1ccc2ccccc2c1 [CBZ-Gly-Gly-Leu-βNA] (Cbz-Gly-Gly-Leu-βNA)
Trichomonal hydrolases [5]
  Color Score: −

## C[C@H](NC(=O)[C@@H](N)CCCCN)C(=O)Nc1ccc2ccccc2c1 [Lys-Ala-βNA] (H-Lys-Ala-βNA)
Trichomonal hydrolases [5]
  Color Score: −

## CBZ-Val-Leu-Arg-MNA
Trichomonal hydrolases [5]
  Color Score: +

## COc1cc(NC(=O)[C@H](C)NC(=O)[C@H](C)NC(=O)[C@H](CCC(N)=O)NC(=O)OC(C)(C)C)cc2ccccc12 [BOC-Gln-Ala-Ala-MNA]
Trichomonal hydrolases [5]
  Color Score: −

## Cbz-Arg-Arg-βNA
Trichomonal hydrolases [5]
  Color Score: −

## CC[C@H](C)[C@H](N)C(=O)Nc1ccc2ccccc2c1 [Ile-βNA]
Trichomonal hydrolases [5]
  Color Score: −

## O=C(Nc1ccc2ccccc2c1)[C@@H]1C[C@@H](O)CN1 [Hyp-βNA]
Trichomonal hydrolases [5]
  Color Score: −

## CSCC[C@H](NC(=O)[C@@H](N)CO)C(=O)Nc1ccc2ccccc2c1 [Ser-Met-βNA] (H-Ser-Met-βNA)
Trichomonal hydrolases [5]
  Color Score: −
